Reference: US20240415914A1, “Water Dispersible Cannabinoid Compositions” (priority 2021, published 2024)

Assay: Stability of cannabinoid and Vitamin E components of Beverage 1 (AB White) stored at 8° C. and 21-25° C., LCMSMS over 570 days
Type: physicochemical
Settings: for Stability in AB White, 8° C. (content by LCMSMS): beverage stored at 8° C.; for Stability in AB White, 21-25° C. (content by LCMSMS): beverage stored at 21-25° C.
Experimental: The LCMSMS was calibrated for 0-1000 ng/ml cannabinoids with the same resin material used in the preparation of the concentrates. At each time period, 100 ml of beverage was diluted with 10 ml of methanol and injected into the LCMSMS for analysis.

In the case of `CCCCCc1cc2c(c(O)c1C(=O)O)[C@@H]1C=C(C)CC[C@H]1C(C)(C)O2` [D9 THCA, delta-9-tetrahydrocannabinolic acid], the “Stability in AB White, 8° C. (content by LCMSMS)” value (day 0) is reported as 0.950 µg/mL, the “Stability in AB White, 8° C. (content by LCMSMS)” value (day 1) is reported as 0.956 µg/mL and the “Stability in AB White, 8° C. (content by LCMSMS)” value (day 2) is reported as 0.954 µg/mL. For the same compound, the “Stability in AB White, 8° C. (content by LCMSMS)” value (day 3) was 0.934 µg/mL, the “Stability in AB White, 8° C. (content by LCMSMS)” value (day 5) was 0.956 µg/mL and the “Stability in AB White, 8° C. (content by LCMSMS)” value (day 8) was 0.949 µg/mL. For the same compound, the “Stability in AB White, 8° C. (content by LCMSMS)” value (day 9) was 0.937 µg/mL, the “Stability in AB White, 8° C. (content by LCMSMS)” value (day 10) was 0.960 µg/mL and the “Stability in AB White, 8° C. (content by LCMSMS)” value (day 11) was 0.929 µg/mL. The “Stability in AB White, 8° C. (content by LCMSMS)” value (day 12) was 0.942 µg/mL, the “Stability in AB White, 8° C. (content by LCMSMS)” value (day 15) was 0.944 µg/mL and the “Stability in AB White, 8° C. (content by LCMSMS)” value (day 16) was 0.932 µg/mL. The “Stability in AB White, 8° C. (content by LCMSMS)” value (day 17) was 0.951 µg/mL, the “Stability in AB White, 8° C. (content by LCMSMS)” value (day 18) was 0.950 µg/mL and the “Stability in AB White, 8° C. (content by LCMSMS)” value (day 19) was 0.959 µg/mL. For the same compound, the “Stability in AB White, 8° C. (content by LCMSMS)” value (day 22) was 0.960 µg/mL, the “Stability in AB White, 8° C. (content by LCMSMS)” value (day 23) was 0.931 µg/mL and the “Stability in AB White, 8° C. (content by LCMSMS)” value (day 24) was 0.926 µg/mL. For the same compound, the “Stability in AB White, 8° C. (content by LCMSMS)” value (day 25) was 0.957 µg/mL, the “Stability in AB White, 8° C. (content by LCMSMS)” value (day 26) was 0.956 µg/mL and the “Stability in AB White, 8° C. (content by LCMSMS)” value (day 29) was 0.939 µg/mL. For the same compound, the “Stability in AB White, 8° C. (content by LCMSMS)” value (day 30) was 0.955 µg/mL, the “Stability in AB White, 8° C. (content by LCMSMS)” value (day 60) was 0.914 µg/mL and the “Stability in AB White, 8° C. (content by LCMSMS)” value (day 90) was 0.948 µg/mL. The “Stability in AB White, 8° C. (content by LCMSMS)” value (day 120) was 0.932 µg/mL, the “Stability in AB White, 8° C. (content by LCMSMS)” value (day 150) was 0.952 µg/mL and the “Stability in AB White, 8° C. (content by LCMSMS)” value (day 180) was 0.941 µg/mL. The “Stability in AB White, 8° C. (content by LCMSMS)” value (day 210) was 0.923 µg/mL, the “Stability in AB White, 8° C. (content by LCMSMS)” value (day 240) was 0.932 µg/mL and the “Stability in AB White, 8° C. (content by LCMSMS)” value (day 270) was 0.933 µg/mL. The “Stability in AB White, 8° C. (content by LCMSMS)” value (day 300) was 0.939 µg/mL, the “Stability in AB White, 8° C. (content by LCMSMS)” value (day 330) was 0.909 µg/mL and the “Stability in AB White, 8° C. (content by LCMSMS)” value (day 360) was 0.913 µg/mL. For the same compound, the “Stability in AB White, 8° C. (content by LCMSMS)” value (day 390) was 0.923 µg/mL, the “Stability in AB White, 8° C. (content by LCMSMS)” value (day 420) was 0.916 µg/mL and the “Stability in AB White, 8° C. (content by LCMSMS)” value (day 450) was 0.923 µg/mL. The “Stability in AB White, 8° C. (content by LCMSMS)” value (day 480) was 0.905 µg/mL, the “Stability in AB White, 8° C. (content by LCMSMS)” value (day 510) was 0.873 µg/mL and the “Stability in AB White, 8° C. (content by LCMSMS)” value (day 540) was 0.877 µg/mL. The “Stability in AB White, 8° C. (content by LCMSMS)” value (day 570) was 0.872 µg/mL, the “Stability in AB White, 21-25° C. (content by LCMSMS)” value (day 0) was 0.950 µg/mL and the “Stability in AB White, 21-25° C. (content by LCMSMS)” value (day 1) was 0.960 µg/mL. The “Stability in AB White, 21-25° C. (content by LCMSMS)” value (day 2) was 0.938 µg/mL, the “Stability in AB White, 21-25° C. (content by LCMSMS)” value (day 3) was 0.920 µg/mL and the “Stability in AB White, 21-25° C. (content by LCMSMS)” value (day 5) was 0.958 µg/mL. For the same compound, the “Stability in AB White, 21-25° C. (content by LCMSMS)” value (day 8) was 0.937 µg/mL, the “Stability in AB White, 21-25° C. (content by LCMSMS)” value (day 9) was 0.926 µg/mL and the “Stability in AB White, 21-25° C. (content by LCMSMS)” value (day 10) was 0.935 µg/mL. The “Stability in AB White, 21-25° C. (content by LCMSMS)” value (day 11) was 0.949 µg/mL, the “Stability in AB White, 21-25° C. (content by LCMSMS)” value (day 12) was 0.935 µg/mL and the “Stability in AB White, 21-25° C. (content by LCMSMS)” value (day 15) was 0.948 µg/mL. For the same compound, the “Stability in AB White, 21-25° C. (content by LCMSMS)” value (day 16) was 0.921 µg/mL, the “Stability in AB White, 21-25° C. (content by LCMSMS)” value (day 17) was 0.919 µg/mL and the “Stability in AB White, 21-25° C. (content by LCMSMS)” value (day 18) was 0.928 µg/mL. For the same compound, the “Stability in AB White, 21-25° C. (content by LCMSMS)” value (day 19) was 0.917 µg/mL, the “Stability in AB White, 21-25° C. (content by LCMSMS)” value (day 22) was 0.947 µg/mL and the “Stability in AB White, 21-25° C. (content by LCMSMS)” value (day 23) was 0.924 µg/mL. For the same compound, the “Stability in AB White, 21-25° C. (content by LCMSMS)” value (day 24) was 0.927 µg/mL, the “Stability in AB White, 21-25° C. (content by LCMSMS)” value (day 25) was 0.948 µg/mL and the “Stability in AB White, 21-25° C. (content by LCMSMS)” value (day 26) was 0.921 µg/mL. For the same compound, the “Stability in AB White, 21-25° C. (content by LCMSMS)” value (day 29) was 0.922 µg/mL, the “Stability in AB White, 21-25° C. (content by LCMSMS)” value (day 30) was 0.934 µg/mL and the “Stability in AB White, 21-25° C. (content by LCMSMS)” value (day 60) was 0.896 µg/mL. The “Stability in AB White, 21-25° C. (content by LCMSMS)” value (day 90) was 0.892 µg/mL, the “Stability in AB White, 21-25° C. (content by LCMSMS)” value (day 120) was 0.894 µg/mL and the “Stability in AB White, 21-25° C. (content by LCMSMS)” value (day 150) was 0.934 µg/mL. For the same compound, the “Stability in AB White, 21-25° C. (content by LCMSMS)” value (day 180) was 0.945 µg/mL, the “Stability in AB White, 21-25° C. (content by LCMSMS)” value (day 210) was 0.913 µg/mL and the “Stability in AB White, 21-25° C. (content by LCMSMS)” value (day 240) was 0.892 µg/mL. The “Stability in AB White, 21-25° C. (content by LCMSMS)” value (day 270) was 0.905 µg/mL, the “Stability in AB White, 21-25° C. (content by LCMSMS)” value (day 300) was 0.888 µg/mL and the “Stability in AB White, 21-25° C. (content by LCMSMS)” value (day 330) was 0.894 µg/mL. The “Stability in AB White, 21-25° C. (content by LCMSMS)” value (day 360) was 0.925 µg/mL, the “Stability in AB White, 21-25° C. (content by LCMSMS)” value (day 390) was 0.907 µg/mL and the “Stability in AB White, 21-25° C. (content by LCMSMS)” value (day 420) was 0.909 µg/mL. For the same compound, the “Stability in AB White, 21-25° C. (content by LCMSMS)” value (day 450) was 0.921 µg/mL, the “Stability in AB White, 21-25° C. (content by LCMSMS)” value (day 480) was 0.873 µg/mL and the “Stability in AB White, 21-25° C. (content by LCMSMS)” value (day 510) was 0.903 µg/mL. The “Stability in AB White, 21-25° C. (content by LCMSMS)” value (day 540) was 0.877 µg/mL and the “Stability in AB White, 21-25° C. (content by LCMSMS)” value (day 570) was 0.877 µg/mL.
